Measurements from patent US20230398130A1, “METHODS AND COMPOSITIONS FOR DIFFERENTIATING STEM CELLS” (Massachusetts Institute of Technology, priority 2020, published 2023).

Test system: ISC-enriched organoids
Assay: Secondary (validation) screen, 384-well 2.5-D, ENR+CD 6 days, n=8 wells, vs ENR+CD+DMSO control: basal lysozyme secretion (LYZ.NS)
Assay type: cell-based, murine

Question: With `O=C(/C=C\n1cnc(-c2cc(C(F)(F)F)cc(C(F)(F)F)c2)n1)NNc1cnccn1` [KPT-330] as the compound, how does the Z.LYZ.NS (Dose 0.02 uM) read?
Answer: −0.038

Question: What about the repSSMD.LYZ.NS (Dose 0.02 uM) of the same compound?
Answer: −0.050

Question: What about the Z.LYZ.NS (Dose 0.04 uM) of the same compound?
Answer: −0.318

Question: What about the repSSMD.LYZ.NS (Dose 0.04 uM) of the same compound?
Answer: −0.506

Question: And the Z.LYZ.NS (dose 0.08 uM)?
Answer: 1.132

Question: What about the repSSMD.LYZ.NS (dose 0.08 uM) of the same compound?
Answer: 1.621

Question: What about the “increase in LYZ.NS (basal LYZ secretion) relative to ENR+CD control” value (validated doses, secondary screen) of the same compound?
Answer: 50-75%
